Experiments:
[1] = test system: 69 binding sites in nine classes; experiment: NovaScreen ligand-binding screen, other binding sites; settings: 10.0 nM and 100 nM
Protocol: Methods: Investigational drug candidates CX157 were analyzed in NovaScreen's bank of ligand-binding reactions to test for specificity. CX157 was screened at concentrations of both 10.0 nM and 100 nM as potential competitors in binding reactions involving nine classes containing 69 binding sites. The following binding reactions are tested: Adenosine Non-selective, Adrenergic Alpha 1 Non-selective, Adrenergic Alpha 2 Non-selective, Adrenergic Beta Non-selective, Dopamine Transporter, Dopamine Non-selective, GABA A Agonist Site, GABA A BDZ alpha 1 site, GABA B, Glutamate AMPA Site (Ionotropic), Glutamate Kainate Site (Ionotropic), Glutamate NMDA Agonist Site (Ionotropic), Glutamate NMDA Glycine (Stry-insens Site) (Ionotrophic), Glycine Strychnine-sensitive, Histamine H1, Histamine H2, Histamine H3, Melatonin Non-selective, Muscarinic M1 (hr), Muscarinic M2 (hr), Muscarinic Non-selective Central, Muscarinic Non-selective Peripheral, Nicotinic (α-BnTx insensitive) Neuronal, Norepinephrine Transporter, Opioid Non-selective, Orphanin (hr), Serotonin Transporter, Serotonin Non-selective, Sigma Non-selective, Estrogen, Testosterone (cytosolic), Calcium Channel Type L (Dihydropyridine Site), Calcium Channel Type N, Potassium Channel ATP-Sensitive, Potassium Channel Ca2+ Act. VI, Potassium Channel I[Kr]

[2] = Protocol: Methods: The trial was a Phase 1, single center, double-blind, placebo-controlled, sequential group, acute dose escalation study of the safety and pharmacokinetics of seven (7) CX157 dose levels in healthy male volunteers. Each of the seven (7) dose groups consisted of six (6) subjects, with the exception of cohort 2 (CX157 10 mg or placebo) which enrolled only five (5) subjects. Within each dose group, four (4) subjects were randomized to CX157 and two (2) subjects to placebo. Subjects were normal healthy volunteers confined to the study center for approximately 4 days, beginning approximately 16 hours before exposure to study drug and ending approximately 48 hours after exposure to study drug. Safety and tolerability was assessed for each dose group by the Principal Investigator before advancing to the next scheduled dose group. CX157 was administered as a fully solubilized microemulsion in Labrasol™
[3] = Exemplary administration of CX157, DMT and combinations: subjective effects; type: in vivo; settings: 175 mg CX157 alone
Protocol: Administration Example 1: Subjects are administered 175 mg CX157 alone.
Administration Example 2: Subjects are administered 25 mg, 37.5 mg, 50 mg, 75 mg, or 100 mg DMT freebase in a capsule.
Administration Example 3: Subjects are administered 175 mg CX157, and then from between 2-3 hours later, such as at 2 hours 40 minutes later, a dose of 0.03 mg/kg, 0.05 mg/kg, or 0.07 mg/kg DMT freebase in capsule. Alternatively, subjects are administered a capsule containing 2.5 mg, 3.75 mg, 5 mg, 7.5 mg, 10 mg, 12.5 mg, 15 mg, 17.5 mg, or 20 mg DMT freebase.
Administration Example 4: Subjects are administered 175 mg CX157, and then from between 2-3 hours later, such as at 2 hours 15 minutes later, a dose of 0.2 mg/kg, 0.4 mg/kg, or 0.6 mg/kg DMT freebase in capsule. Alternatively, subjects are administered a capsule containing 25 mg, 37.5 mg, 50 mg, 75 mg, 100 mg, 125 mg, 150 mg, 175 mg, or 200 mg DMT freebase. At lower doses of DMT, subjects report effects that are relaxing, comforting, and “warm,” and describe mildly mood-elevating and anxiolytic properties. […]

MAO-B = target: T1, MAO-B (Homo sapiens, UniProt P27338)
T1 sequence (P27338 1-520): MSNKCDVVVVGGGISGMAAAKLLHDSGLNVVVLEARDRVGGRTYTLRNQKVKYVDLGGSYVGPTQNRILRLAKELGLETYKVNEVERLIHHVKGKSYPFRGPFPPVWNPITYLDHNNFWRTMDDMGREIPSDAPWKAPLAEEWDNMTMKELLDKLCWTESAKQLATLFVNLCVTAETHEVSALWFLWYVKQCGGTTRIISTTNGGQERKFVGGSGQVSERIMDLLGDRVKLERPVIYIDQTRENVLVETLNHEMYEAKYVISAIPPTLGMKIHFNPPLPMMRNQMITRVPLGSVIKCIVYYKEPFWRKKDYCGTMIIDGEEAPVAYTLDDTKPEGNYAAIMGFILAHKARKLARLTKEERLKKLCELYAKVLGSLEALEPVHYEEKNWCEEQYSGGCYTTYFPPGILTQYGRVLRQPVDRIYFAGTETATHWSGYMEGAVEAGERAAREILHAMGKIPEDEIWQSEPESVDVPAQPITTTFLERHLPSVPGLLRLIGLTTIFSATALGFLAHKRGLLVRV

In the case of `O=S1(=O)c2ccc(F)cc2Oc2cc(OCC(F)(F)F)ccc21` [CX157, 3-fluoro-7(2,2,2-trifluorethoxy)phenoxathiine-10,10-dioxide], the “interactions with other binding sites in the screen” value [1] is reported as “no interactions”, the “percent of subjects experiencing adverse events” value ([2]; all CX157 groups, single doses) is reported as 89% and the safety and tolerability ([2]; healthy volunteers, single dose escalation) is reported as “safe and well tolerated”. The antidepressant activity [3] was “no significant antidepressant activity”, the “selectivity for MAO-A inhibition over MAO-B inhibition” value (MAO-B; human brain homogenates) was greater than 1000 fold and the MAO-B inhibition (MAO-B; tested concentration 10 μM) was “no detectable MAO-B inhibition”.
